What all share (assay): DTP human tumour cell line panel, 48 h
The subject of assay [1] is KM12 colon.
The test system of assay [2] is HOP-62 NSCLC.
In assay [3] the test system is 786-0 renal.
Assay [4] concerns HCC-2998 colon.
In assay [5] the test system is EKVX NSCLC.
In assay [6] the test system is SK-MEL-2 melanoma.
In assay [7] the test system is OVCAR-8 ovarian.
Assay [8] concerns SNB-75 CNS.
Assay [9] deals with UO-31 renal.
For assay [10], the system named is LOX IMVI melanoma.

Each structure is given as a SMILES string. “And” between values parts separate entries of the source, which are not always exact repeats. Equal values may be shown once.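 Protocol summary: plate cells (96-well), add compound at 5 concentrations, incubate 48 h, interpolate endpoints linearly. The concentration for 50% growth inhibition is given as GI50. TGI denotes the concentration required for complete inhibition of growth.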

By GI50 is commonly meant the concentration that inhibits growth by half. What is called TGI is the concentration giving total growth inhibition.

Take `COc1cc(/C=C/C(=O)/C=C/c2cc3ccc(Cl)cc3n(Cc3ccccc3)c2=O)ccc1O`: the GI50 in assay [1] is 1.7 µM; in assay [2], 2.75 µM; in assay [3] it was 1.78 µM; in assay [4], 1.98 µM; in assay [5] it was 2.11 µM; in assay [6], 1.92 µM. Besides, the GI50 is 0.497 µM in [7], 2.52 µM in assay [8], 1.34 µM in [9] and 1.29 µM in [10]. In addition, the TGI is 3.59 µM in assay [1]; 7.08 µM in [2]; 3.58 µM in [3]; 3.48 µM in [4]; 4.67 µM in [5]; 4.97 µM in assay [6]. Besides, the TGI in [7] is 11.7 µM; in assay [8] it was 7.42 µM; in assay [9] it was 2.64 µM; in assay [10], 2.61 µM.
`O=C1C2c3[nH]c4ccccc4c3C3CCCCCC3C2C(=O)N1c1ccccc1` (configuration not stated): the TGI in [1] was greater than 100 µM; in assay [2] it was 41.7 µM; in [3] it was greater than 100 µM; in [4] it was greater than 100 µM; in assay [5], greater than 100 µM; in [6], 67.2 µM. Moreover, the TGI is 34 µM in [7], 8.41 µM in [8], 99.4 µM in assay [9] and greater than 49.9 µM in assay [10].
`CC1=C(C(=O)NCc2ccccc2)C(c2ccccc2C)C(C(=O)NCc2ccccc2)=C(C)N1`: the TGI is 58.8 µM in assay [1]; 69.7 µM in [2]; 67 µM in assay [3]; greater than 60 µM in assay [4]; greater than 100 µM in [5]; 38.5 µM in assay [6]. The TGI was 32.8 µM in [7], greater than 94.1 µM in [8], greater than 93.3 µM in [9] and 35.7 µM in [10].
On to `Cc1nc(-c2cnc(NC(C)C)n(C)c2=O)ccc1Oc1ccnc(-c2cnn(C)c2)c1`, for which the GI50 is 5.91 µM in assay [1]; 12.7 µM in assay [2]; 25.7 µM in assay [3]; 24 µM in assay [4]; 10.4 µM in [5]; 12 µM in assay [6]. For the same compound, the GI50 in [7] was 21.3 µM; in [8], 12.3 µM; in [9], 15.7 µM; in assay [10], 20.7 µM. In addition, the TGI in assay [1] is greater than 100 µM; in assay [2] it was greater than 100 µM; in assay [3], greater than 100 µM; in [4], greater than 100 µM; in assay [5] it was 99.7 µM; in [6] it was 52.8 µM. The TGI in [7] is greater than 100 µM; in assay [8], 47.7 µM; in [9] it was greater than 100 µM; in [10], greater than 100 µM.
Turning to `COc1ccccc1/C=C/C1=C(C)CCC(c2ccccc2OC)C1C` (configuration not stated), the GI50 in assay [1] was 0.0879 µM; in assay [2], 0.153 µM; in assay [3], 0.196 µM; in assay [4] it was 0.249 µM; in assay [5], 0.119 µM; in assay [6] it was 0.224 µM. Besides, the GI50 in assay [7] was 0.137 µM; in assay [8], 0.131 µM; in [9] it was 0.371 µM; in assay [10], 0.184 µM. Also, the TGI in assay [2] was 19.3 µM; in assay [3], 2.51 µM; in assay [4], 1.56 µM; in [5], greater than 100 µM; in assay [6] it was greater than 100 µM; in assay [8] it was 76.5 µM. Besides, the figures for the TGI in assay [9] and in assay [10] were greater than 100 µM and greater than 56.8 µM, respectively.
With `Nc1cc(C(F)(F)F)c(-c2cc(N3CCOCC3)nc(N3CCOCC3)n2)cn1`, the GI50 was 1.39 µM and 1.22 µM in [1]; 0.385 µM and 0.793 µM in assay [2]; 1.65 µM and 2.1 µM in assay [3]; 0.85 µM and 1.12 µM in assay [4]; 0.721 µM and 1.22 µM in assay [5]; 0.678 µM and 0.385 µM in assay [6]. For the same compound, the GI50 in assay [7] is 1.67 µM and 1.55 µM; in assay [8], 0.179 µM and 0.377 µM; in assay [9] it was 0.309 µM and 0.527 µM; in assay [10], 0.807 µM and 0.907 µM. The TGI was > 10 µM and 8.55 µM in [1]; 4.31 µM and 4.87 µM in assay [2]; 9.77 µM and 8.63 µM in assay [3]; 4.14 µM and 5.45 µM in assay [4]; 3.39 µM and 2.27 µM in assay [6]; > 9.24 µM and 11.8 µM in assay [7]. Besides, the TGI in [8] is 1.46 µM and 2.02 µM; in [10] it was greater than 33.4 µM.
Consider `COC1=C(OC)C(=O)C(Sc2ccc3ccccc3c2)=CC1=O`, for which the TGI is 21.2 µM in assay [1]; 32.7 µM in assay [2]; 16.3 µM in assay [3]; 26.1 µM in [4]; 30.5 µM in assay [5]; 31.4 µM in [6]. The TGI in assay [7] came out at 82.4 µM; in assay [8], 29.8 µM; in assay [9], 16.3 µM; in [10] it was 30.6 µM.
On to `COc1ccc2nc3cc([N+](=O)[O-])ccc3c(NNc3ccccc3)c2c1`, for which the GI50 in assay [1] is 6.25 µM; in assay [2], 13.1 µM; in [7] it was 6.77 µM; in assay [8], 15.6 µM; in assay [9] it was 13.1 µM; in assay [10] it was 14.5 µM. Further, the TGI in assay [1] was 19.6 µM and 32.4 µM; in assay [2], 29.7 µM and > 100 µM; in [3], 40.4 µM and 44 µM; in assay [4] it was 46.3 µM; in assay [5], > 100 µM and 71.8 µM; in assay [6], greater than 78.9 µM. The TGI in assay [7] was 22.5 µM and > 100 µM; in assay [8], 35.7 µM and > 100 µM; in assay [9], 34.3 µM and > 100 µM; in [10], greater than 100 µM.
Turning to `CN(C)CCn1cnc2ncccc2c1=O`, the TGI in assay [1], in [2], in [3], in assay [4], in assay [5] and in assay [6] was greater than 100 µM in each case. Further, the concentration for total growth inhibition (TGI) in [7], in assay [8], in [9] and in [10] was greater than 100 µM throughout.

The record behind these values is PubChem BioAssay (NCI).
